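Growth conditions: 96-well plates. Treatment: test compound, 48 hours, 5 concentrations. Analysis: linear interpolation between bracketing concentrations; unreached endpoints set to highest concentration. GI50 marks 50% less growth. Definition used: TGI = concentration required for complete inhibition of growth.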
Key:
Test in all cases: growth of human tumour cells (NCI), 48 h
SNB-19 CNS = tested on: SNB-19 CNS
HL-60(TB) leukemia = tested on: HL-60(TB) leukemia
RPMI-8226 leukemia = tested on: RPMI-8226 leukemia
KM12 colon = tested on: KM12 colon
SN12C renal = tested on: SN12C renal
OVCAR-5 ovarian = tested on: OVCAR-5 ovarian
SK-MEL-28 melanoma = tested on: SK-MEL-28 melanoma
OVCAR-8 ovarian = tested on: OVCAR-8 ovarian
IGROV1 ovarian = tested on: IGROV1 ovarian
LOX IMVI melanoma = tested on: LOX IMVI melanoma

Structure (SMILES) | TGI (SNB-19 CNS) [µM] | TGI (HL-60(TB) leukemia) [µM] | TGI (RPMI-8226 leukemia) [µM] | TGI (KM12 colon) [µM] | TGI (SN12C renal) [µM] | TGI (OVCAR-5 ovarian) [µM] | TGI (SK-MEL-28 melanoma) [µM] | TGI (OVCAR-8 ovarian) [µM] | TGI (IGROV1 ovarian) [µM] | TGI (LOX IMVI melanoma) [µM] | GI50 (SNB-19 CNS) [µM] | GI50 (RPMI-8226 leukemia) [µM] | GI50 (IGROV1 ovarian) [µM] | GI50 (KM12 colon) [µM] | GI50 (SN12C renal) [µM] | GI50 (LOX IMVI melanoma) [µM] | GI50 (OVCAR-5 ovarian) [µM] | GI50 (SK-MEL-28 melanoma) [µM] | GI50 (OVCAR-8 ovarian) [µM]
CSc1nc(-c2cc3c(c(SC)n2)CCC3)cc2c1CCC2 | > 100 | > 100 | > 100 | > 100 | > 100 | > 100 | > 100 | > 100 |  |  |  |  |  |  |  |  |  |  | 
CCCC(=O)N[C@@H](Cc1cc(I)c(O)c(I)c1)C(=O)NCCCNCCCCNCCCNC(=O)[C@@H](N)CCCN=C(N)N | > 100 | > 100 | > 100 | > 100 | > 100 |  | > 100 | > 100 | > 100 | > 100 |  |  |  |  |  |  |  |  | 
COc1cccc(NC(=O)N/C(=C/c2ccc(N(CCC#N)CCC#N)cc2)NC(=O)c2cc([N+](=O)[O-])ccc2Cl)c1 | > 100 |  | > 100 | > 100 | > 100 | > 100 | > 100 | > 100 | > 100 | > 100 |  |  |  |  |  |  |  |  | 
C/C(=N/NC(=S)N(Cc1ccccn1)Cc1ccccn1)c1cnccn1 | 18.8 | > 68.2 | > 37.4 | 19.7 | 12.9 | 32.6 | > 61.8 |  | 2.78 | 0.447 |  |  |  |  |  |  |  |  | 
O=C(/C=C/c1ccc(Cl)c(Cl)c1)CCN1CCN(CCC(=O)/C=C/c2ccc(Cl)c(Cl)c2)CC1 |  | > 100 | > 100 | 40.6 | 80.9 | 39.9 | 46.3 | > 100 | 49 | 33.7 |  |  |  |  |  |  |  |  | 
N#Cc1nc(Cc2ccccc2)oc1N | > 100 |  | > 100 | > 100 | > 100 | > 100 | > 100 |  | > 100 | > 100 |  |  |  |  |  |  |  |  | 
OCC1CCCCN1Cc1nc2ccc(Cl)cc2[nH]1 (stereo unspecified) | > 100 | > 100 | > 100 | > 100 | > 100 | > 100 | > 100 | > 100 | > 100 |  |  |  |  |  |  |  |  |  | 
CCC(/C=C/c1ccccc1)=N\NC(=S)N/N=C(/C=C/c1ccccc1)CC | > 100 | 62.7 | > 100 | > 100 | > 100 |  | > 100 | 45.9 | > 100 | > 100 |  |  |  |  |  |  |  |  | 
CSc1cc(Cl)c(C)cc1S(=O)(=O)NC(=O)NNc1ccccn1 | > 100 |  |  | > 100 | > 100 | > 100 | > 100 | > 100 | > 100 | > 100 |  |  |  |  |  |  |  |  | 
COc1cc2cnc3c(c2cc1OC)Cc1cc2c(cc1-3)OCO2 | 37.7 |  | 85.7 | > 100 | > 100 | 77.9 | > 100 | > 100 | > 62.9 | > 100 | 0.0486 | < 0.01 | 0.014 | < 0.01 | > 100 | 0.576 | 35.5 | 1.86 | 0.0527
CCCN(CCC)C(=O)Cc1c2n(c3ccccc13)Cc1ccccc1-2 | > 100 | > 100 | > 100 | > 100 | > 100 |  | > 100 | > 100 |  | > 100 |  |  |  |  |  |  |  |  | 
COC(=O)c1cc(C)ccc1CC(Cc1ccccc1C)C(=O)OC (stereo unspecified) | > 100 | 36.3 |  | > 100 | > 100 |  | > 100 | > 100 | > 100 | 28.1 |  |  |  |  |  |  |  |  | 
COc1ccc(/C=N/n2c(C)n[nH]c2=O)cc1 | > 100 |  | > 100 | > 100 | > 100 | > 100 | > 100 | > 100 |  |  |  |  |  |  |  |  |  |  | 
Cc1cc2c(cc1Cl)Sc1nnc(C)n1S2(=O)=O | 86.5 | 24.4 |  | 30.9 | 34.3 | 97.7 | 31.5 | 48.8 | 29.1 | 23.6 |  |  |  |  |  |  |  |  | 
CC1(C)SC2C(NC(=O)Cc3ccccc3)C(=O)N2C1C(=O)O (stereo unspecified) | > 100 | > 100 |  | > 100 | > 100 | > 100 | > 100 | > 100 | > 100 | > 100 |  |  |  |  |  |  |  |  | 
COc1ccc(S(=O)Cc2cc(OC)ccc2OC)cc1 (stereo unspecified) | > 100 |  |  | > 100 | > 100 | > 100 | > 100 | > 100 | > 100 | > 100 |  |  |  |  |  |  |  |  | 
CSCCCNC(=O)c1csc([C@@H](CSC)NC(=O)CCNC(=O)[C@@H](NC(=O)OCC(Br)(Br)Br)C(C)O)n1 (stereo partly specified) | > 100 | > 100 |  | > 100 | > 100 | > 100 | > 100 | > 100 | > 100 | > 100 |  |  |  |  |  |  |  |  | 
O=C(/C(Cl)=C/c1ccccc1)c1ccccc1 | 29.3 |  | > 46.2 | 14.9 | 3.92 | 19.8 | 6.06 | 17.1 |  | 8.8 |  |  |  |  |  |  |  |  | 
CCOC(=O)c1c(NC(=O)c2ccccc2)sc2c1CCC2 | > 100 | > 100 | > 100 | > 100 | > 100 | > 100 |  | > 100 | > 100 |  |  |  |  |  |  |  |  |  | 
Cc1cc(S(N)(=O)=O)c(S/C(=N\Nc2ccc([N+](=O)[O-])cc2)c2ccc(Cl)cc2)cc1Cl | 27 | > 100 | 28.3 | 4.15 | 10.9 |  | 4.91 |  | 12.8 |  |  |  |  |  |  |  |  |  | 
Cc1ccc(NC(=S)NNC(=O)c2cc(-c3ccccc3)nc3ccccc23)cc1C | 93.2 |  | 59.2 | 80 | 38.1 | 76.9 | 78.8 | 44.5 | 63.6 |  |  |  |  |  |  |  |  |  | 
CCOC(=O)/C=C/[C@H](O[Si](c1ccccc1)(c1ccccc1)c1ccccc1)C(C)(C)C | > 31.6 | > 100 | > 29 | > 31.6 | > 31.6 |  |  | > 31.6 | > 31.6 | > 31.6 |  |  |  |  |  |  |  |  | 
C/C=C/OC1C(C2COC(C)(C)O2)OC2OC(C)(C)OC21 (stereo unspecified) | > 100 | > 100 | > 100 |  |  | > 100 | > 100 | > 100 | > 100 | > 100 |  |  |  |  |  |  |  |  | 

Reference: PubChem BioAssay (NCI)
